US20250304921A1 (University of Pittsburgh-Of The Commonwealth System of …, priority 2022, published 2025)
“Also recorded” adds a separate entry of the source. Residues, ends and D or L forms follow the SMILES beside them. *: point of attachment. Decanoyl = CCCCCCCCCC(=O)*; CH2Cl = ClC*

B1: trypsin (protein, UniProt P00760 24-246, looked up)
Serine protease 1: IVGGYTCGANTVPYQVSLNSGYHFCGGSLINSQWVVSAAHCYKSGIQVRLGEDNINVVEGNEQFISASKSIVHPSYNSNTLNNDIMLIKLKSAASLNSRVASISLPTSCASAGTQCLISGWGNTKSSGTSYPDVLKCLKAPILSDSSCKSAYPGQITSNMFCAGYLEGGKDSCQGDSGGPVVCSGKLQGIVSWGSGCAQKNKPGVYTKVCNYVSWIKQTIASN
notes: exogenous protease added to fusion assays or virus titration

Key:
[1] = test system: rFeMV^US5Venus (6) or rFeMV^US5Venus (3); type: cell-based, Feline morbillivirus (FeMV)
rFeMV^US5Venus (6) [2] = type: cell-based, Feline morbillivirus (FeMV)
rFeMV^US5Venus (6) [3] = type: cell-based, Feline morbillivirus (FeMV); remark: listed apart in the source
FeMV^US5FPB = test: Western blot of AU1-tagged F glycoprotein processing (F0 to F1) in transfected cells; type: cell-based, Feline morbillivirus (FeMV); conditions: E64d 20 μM vs DMSO; transfected CRFK cells, lysates at 2 d.p.t.
Description: (§1) CRFK cells were transfected with pCG-FeMV^US5F, pCG-FeMV^US5FAU1, or pCG-FeMV^US5FPB-AU1 in the absence or presence of the pan-cysteine protease inhibitor E64d. At 2 d.p.t. cell lysates were prepared. Medium was removed and the monolayers were rinsed twice with 1 ml cold D-PBS. Cold 1× RIPA buffer (Boston bioproducts; 200 μl) containing 1× HALT protease inhibitors (Thermo Fisher Scientific) was added to the monolayers and incubated on ice for 15 minutes. Monolayers were scraped into the buffer and transferred to cold 1.5 ml tubes. Lysates were incubated on ice for 30 minutes with intermittent vortexing before being centrifuged at 14,000 g for 15 minutes at 4° C. to pellet nuclei. The cleared supernatants were used to prepare samples for polyacrylamide gel electrophoresis (PAGE) by adding appropriate volumes of 4× NUPAGE™ LDS sample loading buffer and ×10 NUPAGE™ reducing agent (both Thermo Fisher Scientific Scientific). PAGE samples were heated to 70° C. for 10 minutes before separation of proteins on a 10% NUPAGE™ bis-TRIS polyacrylamide gel using the Xcell SureLock Mini-Cell system (Thermo Fisher Scientific Scientific) according to manufacturer's instructions. An aliquot of SeeBlue Plus2 Protein Standard was included on each gel to allow estimation of protein sizes. […]

FeMV^US5F = test: as above; type: cell-based, Feline morbillivirus (FeMV); conditions: E64d 20 μM vs DMSO; transfected CRFK cells, lysates at 2 d.p.t.
Description: as §1

FeMV^US5FPB protein = type: cell-based, Feline morbillivirus (FeMV)
[4] = test system: FeMV F and H glycoproteins; type: cell-based, Feline morbillivirus (FeMV)
[5] = test system: NiV^MA F and G glycoproteins; type: cell-based, Nipah virus (NiV)
[6] = test system: MV^KS F and H glycoproteins; type: cell-based
[7] = test system: CDV^RI F and H glycoproteins; type: cell-based
FeMV = conditions: trypsin added during virus titration in CRFK cells; cited from earlier work

| Molecule | infectious virus titers [1] | rFeMV^US5-induced cell-to-cell fusion (luciferase activity) (rFeMV^US5Venus (6) [2]) | cell-to-cell fusion and spread by rFeMV^US5Venus (6) and rFeMV^US5Venus (3) (rFeMV^US5Venus (6) [3]) | spread of rFeMV^US5Venus (6) infection (rFeMV^US5Venus (6) [3]) | virus entry and initial replication in cells (rFeMV^US5Venus (6) [3]) | FeMV^US5FPB (polybasic cleavage signal) F0 processing (FeMV^US5FPB) | FeMV^US5F processing (F0 to F1 subunit) (FeMV^US5F) | fusion activity with FeMV^US5FPB protein (FeMV^US5FPB protein) | FeMV glycoprotein-induced fusion [4] | NiV^MA glycoprotein-induced fusion [5] | MV^KS glycoprotein-induced fusion [6] | CDV^RI glycoprotein-induced fusion [7] | effect of trypsin on resultant virus titers (FeMV) | effect of exogenous trypsin on FeMV glycoprotein-induced cell-to-cell fusion [4] |
| --- | --- | --- | --- | --- | --- | --- | --- | --- | --- | --- | --- | --- | --- | --- |
| CCCNC(=O)[C@H]1O[C@@H]1C(=O)N[C@H](C(=O)N1CCC[C@H]1C(=O)OC)[C@@H](C)CC [CA-074Me] | reduced the infectious virus titers by two logs | reduced; also recorded: inhibited | prevented cell-to-cell fusion and spread | limited to single cells with no spread from the initially infected cell | can enter and initially replicate in cells equivalently to the no inhibitor control | – | – | – | – | – | – | – | – | – |
| CCOC(=O)[C@H]1O[C@@H]1C(=O)N[C@@H](CC(C)C)C(=O)NCCC(C)C [E64d] | reduced the infectious virus titers by two logs | reduced | prevented cell-to-cell fusion and spread | limited to single cells with no spread from the initially infected cell | can enter and initially replicate in cells equivalently to the no inhibitor control | no longer prevented F0 glycoprotein processing | prevented FeMV^US5F processing | no longer affected the fusion activity | significantly reduced; also recorded: inhibited | significantly reduced | – | – | – | – |
| CCCCCCCCCC(=O)N[C@@H](CCCN=C(N)N)C(=O)N[C@H](C(=O)N[C@@H](CCCCN)C(=O)N[C@@H](CCCN=C(N)N)C(=O)CCl)C(C)C [furin inhibitor I] (Decanoyl-RVKR-CH2Cl) | – | no difference in luciferase activity | – | had spread significantly | – | – | – | significantly reduced fusion | unaffected | – | reduced | reduced | – | – |
| B1 | – | – | – | – | – | – | – | – | – | – | – | – | did not augment the resultant virus titers | did not enhance fusion |
